Where a SMILES comes first, the peptide text is derived from it. The star is where a group is joined. Cbz = O=C(OCc1ccccc1)*; CH2F = FC*
How the values were obtained:
[1] = test system: HeLa cells; assay: Effect of Z-VD-fmk on TNF-α-induced cell death in HeLa cells (calcein AM, Example 25); format: cell-based; details: below 50 μM (data not shown)
Procedure: Tumor necrosis factor alpha (TNF-α) can trigger apoptosis in a number of cell types by initiating the caspase cascade and its apoptosis inducing activity can be inhibited by peptide-based caspase inhibitors. However, high concentrations of the inhibitors (50 μM or greater) is required to have good anti-apoptotic effect. HeLa cells, a cell line commonly employed in TNF-α cell death studies, was used here to determine the anti-apoptotic potency of Z-VD-fmk.
HeLa cells were seeded in 48-well multidishes at a density of 50,000 cells per well 24 hours before treatment. They were then pre-incubated with varying concentrations of Z-VD-fmk for 2 hours and challenged with TNF-α (25 ng/mL) and cycloheximide (CHX; 30 μg/mL). The cultures were incubated for an additional 24 hours and dead cells were removed by two washes with PBS. The density of surviving cells was then measured by incubating each culture for 45 minutes with calcein AM, a profluorescent dye which is taken up by living cells and converted to a fluorescent product. The resulting data were expressed as % control values (control values were cells incubated with cycloheximide but without TNF-α).
Z-VD-fmk provided good cytoprotection at concentrations approaching 100 nM.

[2] = test system: HeLa cells; assay: Cell death assay with HeLa cells, quantitative (calcein AM), TNF-α/CHX challenge; format: cell-based
Procedure: (§1) The cytoprotective properties of Cbz-Val-Asp(OMe)CH2F were tested using HeLa cells challenged with tumor necrosis factor-alpha (TNF-α) and cycloheximide (CHX). This is a well-characterized cell culture model of apoptosis which is commonly used to analyze anti-apoptotic agents. Two types of experiments were performed: a qualitative assessment of cell death by visualization of the cells using phase contrast microscopy; and a quantitative assessment of cell death using the fluorescent dye calcein AM.
For quantitative assays, the degree of cell survival in the presence of test compounds is analyzed quantitatively using the indicator dye calcein AM. This dye is taken up and converted to a fluorescent derivative by living cells; the amount of activated dye in each well can then be assayed in a fluorometric plate reader and the degree of fluorescence is used as a measure of the number of surviving cells. For these assays, HeLa cells are seeded in 48-well plates at a density of 25,000 cells per well in 0.4 mL of Minimal Essential Medium containing 2 mM glutamine and 10% fetal bovine serum. 24 hours later the plating medium is removed and 0.5 mL of fresh medium containing test compound at various concentrations is added. The cells are pre-incubated with test compound for 2 hours at 37° C. in a CO2 incubator and then TNF-α and CHX are added at final concentrations of 25 ng/mL and 30 μg/mL, respectively. After a 24 hour incubation period, the cultures are washed twice with serum-free, phenol red-free Ham's F12 to remove dead cells and 125 μL of Ham's F12 containing 8 μM calcein AM is added. […] The data are expressed as “Percent Control,” which is calculated by the following equation: Percent Control=(Calcein AM Signal in the Presence of Test Compound+TNF-α and CHX/(Calcein AM Signal in the Presence of CHX Only)×100% The use of CHX-treated cultures as controls, rather than untreated cultures, allows one to correct for the cytostatic effects of CHX. However, because CHX by itself is also a mild inducer of apoptosis in HeLa cells, strong anti-apoptotic drugs will give a Percent Control value greater than 100%.
Quantitative experiments using calcein AM, as described above, corroborate the results obtained by microscopic examination. FIGS. 4 and 5 illustrate the results of two such experiments where the cytoprotective properties of Cbz-Val-Asp(OMe)-CH2F (a) were compared to BOC-Asp(OMe)-CH2F (b) (FIG. 5) and Cbz-Asp(OMe)-Glu(OMe)-Val-Asp(OMe)-CH2F (SEQ ID NO:1) (c) (FIG. 4) at three concentrations (0.5, 5 and 50 μM). […] By contrast, Cbz-Val-Asp(OMe)-CH2F (a) is as effective a cytoprotectant at 0.5 μM as Cbz-Asp(OMe)-Glu(OMe)-Val-Asp(OMe)-CH2F (SEQ ID NO:1) […] is at 50 μM (FIG. 4).
In order to determine the effect of Cbz-Val-Asp(OMe)-CH2F at low doses, HeLa cells were treated with a range of concentrations from 0.05 μM to 1 μM.

[3] = test system: HeLa cells; assay: Cell death assay with HeLa cells, qualitative (phase contrast microscopy), TNF-α/CHX challenge; format: cell-based; details: 24 hour incubation
Procedure: as §1
For photomicroscopy, HeLa cells are seeded in 12-well multidishes at a density of 100,000 cells per well in Minimal Essential Medium containing 2 mM glutamine and 10% fetal bovine serum. 24 hours later the plating medium is removed and fresh medium is added containing the cytoprotective test compound at various concentrations. The cells are pre-incubated with test compound for 2 hours at 37° C. in a CO2 incubator and then TNF-α and CHX are added at final concentrations of 25 ng/mL and 30 μg/mL, respectively. After a 24 hour incubation period, the cells are examined visually for evidence of cell death based on cell shape and degree of adherence. Cells are considered dead if they have become rounded up and phase bright and have detached from the substratum. Cells are considered alive if they have retained their normal morphology and remain attached to the substratum.
All of these compounds are the methyl ester derivatives. […] At 50 μM, the related peptides BOC-Asp(OMe)-CH2F (FIG. 1C) and Cbz-Glu(OMe)-Val-Asp(OMe)-CH2F (FIG. 1E) are also protective.

[4] = test system: PARP cleavage in Jurkat cells; assay: Inhibition of PARP cleavage in antiFas-treated Jurkat cells (Example 22, Western blot); format: cell-based, human; details: antiFas-treated Jurkat cells
From the text: The cleavage of the enzyme poly(ADP)ribose polymerase (PARP) appears to occur in all cells in which the caspase proteolytic cascade is activated. For this reason, PARP cleavage is widely used as a biochemical marker for caspase-mediated apoptosis. The ability of a cytoprotective drug to block PARP cleavage is considered to be an indication of the drug's ability to inhibit the caspase proteolytic cascade and, in particular, CPP32 (caspase-3), the main PARP protease. The ability of Cbz-Val-Asp(OMe)-CH2F to inhibit PARP cleavage was examined during Fas-mediated apoptosis of Jurkat cells, a human T-cell line. This cell culture model of apoptosis is well-characterized and is known to involve activation of at least two caspases, caspase-3 (CPP32) and caspase-8 (FLICE/MACH).
For PARP cleavage assays, Jurkat cells were seeded at a density of 500,000 cells per well in six-well multidishes in RPMI 1640 medium containing 10% FBS. The cells were pre-incubated with Cbz-Val-Asp(OMe)-CH2F or other test compounds for 2 hours at 37° C. in a CO2 incubator and then a monoclonal antibody to Fas was added at a final concentration of 500 ng/mL. Incubation at 37° C. in a CO2 incubator was continued for an additional 4 hours. […] An amount of lysate corresponding to 10 to 20 μg of protein was loaded on a 7.5% SDS polyacrylamide gel and electrophoresed for 2 to 2.5 hrs at 25 mA. The protein was then transferred to a PVDF membrane, probed with a rabbit polyclonal antibody to PARP, and visualized using chemiluminescence.
Jurkat cells were pre-incubated with 0.5, 5, or 50 μM of the following compounds: Cbz-Val-Asp(OMe)-CH2F (compound 1); BOC-Asp(OMe)-CH2F (compound 5); Cbz-Asp-α-([2,6-dichlorobenzoyloxy]-methyl ketone) (compound 6), Cbz-Glu(OMe)-Val-Asp(OMe)-CH2F (compound 3), Cbz-Asp(OMe)-Glu(OMe)-Val-Asp(OMe)-CH2F (SEQ ID NO:1) (compound 2), Cbz-Ile-Glu(OMe)-Thr-Asp(OMe)-CH2F (SEQ ID NO:2) (compound 4), or Cbz-Val-Ala-Asp(OMe)-CH2F (compound 7). The cells were then treated with antiFas and processed for Western Blotting.

[5] = target: T1, Caspase-3 (Homo sapiens, UniProt P42574); assay: Caspase-3 activity of the dipeptide inhibitors (Table III); format: biochemical
T1 sequence (P42574 29-175 limits assumed): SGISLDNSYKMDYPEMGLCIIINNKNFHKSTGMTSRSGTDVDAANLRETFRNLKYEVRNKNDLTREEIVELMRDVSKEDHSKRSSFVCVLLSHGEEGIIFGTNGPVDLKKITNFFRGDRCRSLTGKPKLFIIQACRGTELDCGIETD

Row | Molecule | inhibition of PARP cleavage ([4]; 0.5 μM) | inhibition of PARP cleavage ([4]; 5 μM) | inhibition of PARP cleavage ([4]; 50 μM) | IC50 [5] | further results
1 | CC(=O)N[C@@H](CC(=O)O)C(=O)N[C@@H](CCC(=O)O)C(=O)N[C@H](C(=O)N[C@H](C=O)CC(=O)O)C(C)C [Ac-DEVD-CHO] |  |  |  |  | cytoprotection against TNF-α-induced cell death [1]: very ineffective
2 | COC(=O)CC(NC(=O)OC(C)(C)C)C(=O)CF (stereo not drawn) [BOC-Asp(OMe)-CH2F] | only marginally effective | effective inhibitors | effective inhibitors |  | protection of HeLa cells from TNF-α/CHX (calcein AM) ([2]; 0.5 μM): inactive; protection of HeLa cells from TNF-α/CHX (calcein AM) ([2]; 5 μM): effective cytoprotectant; protection of HeLa cells from TNF-α/CHX (calcein AM) ([2]; 50 μM): effective cytoprotectant; cytoprotection of HeLa cells from apoptotic effects of TNF-α and CHX (microscopy) ([3]; 5 μM): less effective; cytoprotection of HeLa cells from apoptotic effects of TNF-α and CHX (microscopy) ([3]; 50 μM): protective
3 | COC(=O)CC[C@H](NC(=O)[C@H](CC(=O)OC)NC(=O)OCc1ccccc1)C(=O)N[C@H](C(=O)N[C@@H](CC(=O)OC)C(=O)CF)C(C)C [Cbz-Asp(OMe)-Glu(OMe)-Val-Asp(OMe)-CH2F] | only marginally effective | only marginally effective | inhibited PARP cleavage completely |  | protection of HeLa cells from TNF-α/CHX (calcein AM) ([2]; 50 μM): only minimally effective; cytoprotection of HeLa cells from apoptotic effects of TNF-α and CHX (microscopy) ([3]; 5 μM): no cytoprotective properties; cytoprotection of HeLa cells from apoptotic effects of TNF-α and CHX (microscopy) ([3]; 50 μM): only marginally effective
4 | O=C(O)CC(NC(=O)OCc1ccccc1)C(=O)COC(=O)c1c(Cl)cccc1Cl (stereo not drawn) [Cbz-Asp-DCB, Cbz-Asp-α-([2,6-dichlorobenzoyloxy]methylketone)] | only marginally effective | only marginally effective | inhibited PARP cleavage completely |  | 
5 | COC(=O)CC[C@H](NC(=O)OCc1ccccc1)C(=O)N[C@H](C(=O)N[C@@H](CC(=O)OC)C(=O)CF)C(C)C [Cbz-Glu(OMe)-Val-Asp(OMe)-CH2F] | only marginally effective | effective inhibitors | effective inhibitors |  | cytoprotection of HeLa cells from apoptotic effects of TNF-α and CHX (microscopy) ([3]; 5 μM): less effective; cytoprotection of HeLa cells from apoptotic effects of TNF-α and CHX (microscopy) ([3]; 50 μM): protective
6 | CC[C@H](C)[C@H](NC(=O)OCc1ccccc1)C(=O)N[C@@H](CCC(=O)OC)C(=O)N[C@H](C(=O)N[C@@H](CC(=O)OC)C(=O)CF)[C@@H](C)O [Cbz-Ile-Glu(OMe)-Thr-Asp(OMe)-CH2F] (Cbz-IE(OMe)TD(OMe)-CH2F) | only marginally effective | only marginally effective | inhibited PARP cleavage completely |  | 
7 | COC(=O)C[C@H](NC(=O)[C@H](C)NC(=O)[C@@H](NC(=O)OCc1ccccc1)C(C)C)C(=O)CF [Cbz-Val-Ala-Asp(OMe)-CH2F] (Cbz-Val-Ala-Asp(OMe)-CH2F) | only marginally effective | effective inhibitors | effective inhibitors |  | cytoprotection of HeLa cells from TNF-α/CHX at low doses ([2]; concentration range 0.05 μM to 1 μM): no cytoprotection
8 | COC(=O)CC[C@H](NC(=O)[C@H](CC(=O)OC)NC(=O)OCc1ccccc1)C(=O)N[C@H](C(=O)N[C@@H](CC(=O)OC)C(=O)CF)C(C)C [Z-DEVD-fmk] |  |  |  |  | cytoprotection against TNF-α-induced cell death [1]: very ineffective
9 | O=C(O)CC(NC(=O)C(Cc1cnc[nH]1)NC(=O)OCc1ccccc1)C(=O)CF [Z-L-His-Asp-fmk, Z-His-Asp-fmk] (Cbz-His-Asp-CH2F; configuration not given here) |  |  |  | 770 nM | 
10 | O=C(O)C[C@H](NC(=O)[C@@H]1CCCN1C(=O)OCc1ccccc1)C(=O)CF [Z-L-Pro-Asp-fmk, Z-Pro-Asp-fmk] (Cbz-Pro-Asp-CH2F) |  |  |  | 410 nM | 
11 | O=C(O)C[C@H](NC(=O)[C@H](Cc1ccc(O)cc1)NC(=O)OCc1ccccc1)C(=O)CF [Z-L-Tyr-Asp-fmk, Z-Tyr-Asp-fmk] (Cbz-Tyr-Asp-CH2F) |  |  |  | 660 nM | 
12 | CC(C)[C@@H](C(=O)N[C@@H](CC(=O)O)C(=O)CF)N(C)C(=O)OCc1ccccc1 [Z-N-Me-L-Val-Asp-fmk, Z-N-Me-Val-Asp-fmk] |  |  |  | 1300 nM | 
13 | Cbz-Ala-Asp-CH2F [Z- -Ala-Asp-fmk] |  |  |  | 3500 nM | 

— US6949516B2, “Dipeptide apoptosis inhibitors and the use thereof” (Cytovia, Inc., priority 1997, dated 2005)
